Results on 16 compounds are retold here after US20240109900A1, “AZABICYCLIC SHP2 INHIBITORS” (IRBM S.P.A., priority 2021, published 2024).

Assay [1] has as its system ERK phosphorylation in KYSE-520 cells. Nature of the assay: Phospho-ERK cellular assay. It counts as cell-based. Particulars: Homo sapiens, KYSE-520 cells, 2 h at 37° C., phospho-ERK1/2 (Thr202/Tyr204) TR-FRET, read-out: PERK IC50. The gist of the method: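 TR-FRET read-out of ERK1/2 Thr202/Tyr204 phosphorylation was taken after overnight antibody incubation at room temperature. Before that, KYSE-520 cells were treated 2 h at 37 °C with compound dilutions and lysed 30 min. Percent inhibition relative to vehicle and cell-free wells was fitted four-parametrically to give IC50.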
In general terms: TR-FRET usually uses a lanthanide donor and a delayed reading to cut background.

In assay [2] the target is SHP-2 enzyme (Met1-Leu525) (Homo sapiens (Human), UniProt Q06124). Nature of the assay: SHP2 inhibition enzymatic assay. The class given is biochemical. Particulars: 0.5 nM SHP-2 activated by 500 nM IRS1 peptide, 75 μM DiFMUP substrate; read-out: SHP2wt-IC50. The gist of the method:
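Compounds were preincubated 30 min with 0.5 nM SHP-2 (Met1-Leu525) plus 500 nM IRS1 activating peptide (pH 7.2 HEPES, 5 mM DTT), then 75 μM DiFMUP substrate reacted 30 min at room temperature. After bpV quench, DiFMUP fluorescence gave % inhibition; four-parameter logistic fit yielded IC50.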

The term pIC50 denotes −log10 of the IC50, conventionally taken in molar units.

pIC50: −log10 of the molar value. Where two headings read alike, the source gives them in different places.

Chain of SHP-2 enzyme (Met1-Leu525) (Q06124 1-525): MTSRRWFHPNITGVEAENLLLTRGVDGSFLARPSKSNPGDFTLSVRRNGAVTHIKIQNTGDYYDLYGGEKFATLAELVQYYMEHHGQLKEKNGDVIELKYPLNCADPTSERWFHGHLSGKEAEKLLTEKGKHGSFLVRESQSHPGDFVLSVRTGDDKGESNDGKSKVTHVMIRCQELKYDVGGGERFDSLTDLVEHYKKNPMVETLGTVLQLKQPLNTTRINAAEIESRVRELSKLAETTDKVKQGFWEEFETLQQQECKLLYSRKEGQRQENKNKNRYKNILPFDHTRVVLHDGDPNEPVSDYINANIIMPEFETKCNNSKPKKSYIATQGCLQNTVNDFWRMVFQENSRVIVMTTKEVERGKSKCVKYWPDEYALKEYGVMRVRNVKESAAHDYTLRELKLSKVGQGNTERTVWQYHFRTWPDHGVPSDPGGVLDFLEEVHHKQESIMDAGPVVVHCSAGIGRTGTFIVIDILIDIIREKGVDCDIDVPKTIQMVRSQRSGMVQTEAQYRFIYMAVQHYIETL

Consider `NC[C@]1(c2ccccc2F)[C@@H]2CCN(c3cnc4c(-c5ccc(F)c6ncccc56)n[nH]c4n3)C[C@@H]21` [Example 376, ((1S,6R,7R)-7-(2-fluorophenyl)-3-(3-(8-fluoroquinolin-5-yl)-1H-pyrazolo[3,4-b]pyrazin-6-yl)-3-azabicyclo[4.1.0]heptan-7-yl)methanamine], for which the pIC50 is more than 6.00 in assay [1] (KYSE-520, 2 h) and more than 6.30 in assay [2].
With `Cc1nc(-c2ccc(-c3n[nH]c4nc(N5CC[C@@H]6[C@H](C5)[C@@]6(CN)c5ccccc5F)cnc34)c(Cl)c2)no1` [Example 377, ((1S,6R,7R)-3-(3-(2-chloro-4-(5-methyl-1,2,4-oxadiazol-3-yl)phenyl)-1H-pyrazolo[3,4-b]pyrazin-6-yl)-7-(2-fluorophenyl)-3-azabicyclo[4.1.0]heptan-7-yl)methanamine], the pIC50 in assay [1] (KYSE-520, 2 h) is more than 6.00; in assay [2], more than 6.30.
As for `Cn1cc2c(Cl)c(-c3c[nH]c4nc(N5CC[C@@H]6[C@H](C5)[C@@]6(CN)c5ccccc5F)n(C)c(=O)c34)ccc2n1` [Example 378, 2-((1S,6R,7R)-7-(aminomethyl)-7-(2-fluorophenyl)-3-azabicyclo[4.1.0]heptan-3-yl)-5-(4-chloro-2-methyl-2H-indazol-5-yl)-3-methyl-3,7-dihydro-4H-pyrrolo[2,3-d]pyrimidin-4-one], the pIC50 was more than 6.00 in assay [1] (KYSE-520, 2 h) and more than 6.30 in assay [2].
With `Cn1c(N2CC[C@@H]3[C@H](C2)[C@@]3(CN)c2ccccc2F)nc2[nH]cc(-c3ccc4c(=O)[nH]ccc4c3F)c2c1=O` [Example 380, 6-(2-((1S,6R,7R)-7-(aminomethyl)-7-(2-fluorophenyl)-3-azabicyclo[4.1.0]heptan-3-yl)-3-methyl-4-oxo-4,7-dihydro-3H-pyrrolo[2,3-d]pyrimidin-5-yl)-5-fluoroisoquinolin-1(2H)-one], the negative-log IC50 (pIC50) was more than 6.00 in assay [1] (KYSE-520, 2 h) and more than 6.30 in assay [2].
Regarding `NC[C@]1(c2ccccc2F)[C@@H]2CCN(c3cnc4c(-c5cc(F)c(CO)c(F)c5)n[nH]c4n3)C[C@@H]21` [Example 381, (4-(6-((1S,6R,7R)-7-(aminomethyl)-7-(2-fluorophenyl)-3-azabicyclo[4.1.0]heptan-3-yl)-1H-pyrazolo[3,4-b]pyrazin-3-yl)-2,6-difluorophenyl)methanol], the pIC50 was less than 5.30 in assay [1] (KYSE-520, 2 h) and more than 6.30 in assay [2].
As for `NC[C@]1(c2ccccc2F)[C@@H]2CCN(c3cnc4c(ccn4-c4ccnc5ccccc45)n3)C[C@@H]21` [Example 382, ((1S,6R,7R)-7-(2-fluorophenyl)-3-(5-(quinolin-4-yl)-5H-pyrrolo[2,3-b]pyrazin-2-yl)-3-azabicyclo[4.1.0]heptan-7-yl)methanamine], the pIC50 in assay [1] (KYSE-520, 2 h) is less than 5.30; in assay [2], more than 6.30.
In the case of `CC(=O)NC[C@]1(c2ccccc2F)[C@@H]2CCN(c3cnc4c(-c5ccc6nn(C)cc6c5)n[nH]c4n3)C[C@@H]21` [Example 383, N-(((1S,6R,7R)-7-(2-fluorophenyl)-3-(3-(2-methyl-2H-indazol-5-yl)-1H-pyrazolo[3,4-b]pyrazin-6-yl)-3-azabicyclo[4.1.0]heptan-7-yl)methyl)acetamide], the pIC50 in assay [1] (KYSE-520, 2 h) is more than 6.00; in assay [2], less than 5.52.
As for `NC[C@]1(c2ccccc2F)[C@@H]2CCN(c3cnc(Sc4ccnc(N)c4Cl)c(N)n3)C[C@@H]21` [Example 384, 3-((2-amino-3-chloropyridin-4-yl)thio)-6-((1S,6R,7R)-7-(aminomethyl)-7-(2-fluorophenyl)-3-azabicyclo[4.1.0]heptan-3-yl)pyrazin-2-amine], the pIC50 in assay [1] (KYSE-520, 2 h) was more than 6.00; in assay [2] it was more than 6.30.
With `NC[C@]1(c2ccccc2F)[C@@H]2CCN(c3ccc4nc(Sc5ccnc(N)c5Cl)cnc4n3)C[C@@H]21` [Example 385, 4-((6-((1S,6R,7R)-7-(aminomethyl)-7-(2-fluorophenyl)-3-azabicyclo[4.1.0]heptan-3-yl)pyrido[2,3-b]pyrazin-2-yl)thio)-3-chloropyridin-2-amine], the pIC50 in assay [1] is more than 6.00; in assay [2], more than 6.30.
For `NC[C@]1(c2ccccc2F)[C@@H]2CCN(c3cnc4c(-c5ccnc(N6CC[C@H](CO)C6)c5Cl)n[nH]c4n3)C[C@@H]21` [Example 386, ((S)-1-(4-(6-((1S,6R,7R)-7-(aminomethyl)-7-(2-fluorophenyl)-3-azabicyclo[4.1.0]heptan-3-yl)-1H-pyrazolo[3,4-b]pyrazin-3-yl)-3-chloropyridin-2-yl)pyrrolidin-3-yl)methanol], the pIC50 was more than 6.00 in assay [1] (KYSE-520, 2 h) and more than 6.30 in assay [2].
On to `NC[C@]1(c2ccccc2F)[C@@H]2CCN(c3cnc(Sc4ccnc(-n5cccn5)c4Cl)cn3)C[C@@H]21` [Example 388, ((1S,6R,7R)-3-(5-((3-chloro-2-(1H-pyrazol-1-yl)pyridin-4-yl)thio)pyrazin-2-yl)-7-(2-fluorophenyl)-3-azabicyclo[4.1.0]heptan-7-yl)methanamine], for which the pIC50 in assay [1] (KYSE-520, 2 h) was more than 6.00; in assay [2] it was more than 6.30.
For `NC[C@]1(c2ccccc2F)[C@@H]2CCN(c3cnc4c(-c5cnn(-c6ccccc6)c5)n[nH]c4n3)C[C@@H]21` [Example 390, ((1S,6R,7R)-7-(2-fluorophenyl)-3-(3-(1-phenyl-1H-pyrazol-4-yl)-1H-pyrazolo[3,4-b]pyrazin-6-yl)-3-azabicyclo[4.1.0]heptan-7-yl)methanamine] the same measures were less than 5.30 and more than 6.30.
For `COCCn1cc2c(Cl)c(-c3n[nH]c4nc(N5CC[C@@H]6[C@H](C5)[C@@]6(CN)c5ccccc5F)cnc34)ccc2n1` [Example 393, ((1S,6R,7R)-3-(3-(4-chloro-2-(2-methoxyethyl)-2H-indazol-5-yl)-1H-pyrazolo[3,4-b]pyrazin-6-yl)-7-(2-fluorophenyl)-3-azabicyclo[4.1.0]heptan-7-yl)methanamine] the same measures were more than 6.00 and more than 6.30.
With `Cn1cc2cc(-c3ccc4nc(N5CC[C@H]6[C@@H](C5)[C@]6(CN)c5ccccc5F)ccc4n3)ccc2n1` [Example 394, ((1R,6S,7S)-7-(2-fluorophenyl)-3-(6-(2-methyl-2H-indazol-5-yl)-1,5-naphthyridin-2-yl)-3-azabicyclo[4.1.0]heptan-7-yl)methanamine], the pIC50 was more than 6.00 in assay [1] (KYSE-520, 2 h) and less than 5.52 in assay [2].
As to `NC[C@]1(c2ccccc2F)[C@@H]2CCN(c3cnc4nc(Sc5ccnc(N)c5Cl)ccc4n3)C[C@@H]21` [Example 395, 4-((2-((1S,6R,7R)-7-(aminomethyl)-7-(2-fluorophenyl)-3-azabicyclo[4.1.0]heptan-3-yl)pyrido[2,3-b]pyrazin-6-yl)thio)-3-chloropyridin-2-amine], the pIC50 was more than 6.00 in assay [1] (KYSE-520, 2 h) and more than 6.30 in assay [2].
For `Cn1cnc2ccc(-c3n[nH]c4nc(N5CC[C@@H]6[C@H](C5)[C@@]6(CN)c5cc(F)ccc5F)cnc34)c(Cl)c21` [Example 396, ((1S,6R,7R)-3-(3-(7-chloro-1-methyl-1H-benzo[d]imidazol-6-yl)-1H-pyrazolo[3,4-b]pyrazin-6-yl)-7-(2,5-difluorophenyl)-3-azabicyclo[4.1.0]heptan-7-yl)methanamine] the same measures were more than 6.00 and more than 6.30.
